Test results taken from US20090082453A1, “Exogenous Methyl Dihydrojasmonate for Prevention and Control of Biotic Attack in Plants” (NEW BIOLOGY, INC., priority 2007, published 2009).

Experiments:
Polyphenol Oxidase (PPO) = assay: Polyphenol oxidase (PPO) induction in tomato plants (Example 2); format: in vivo; conditions: tomato seedlings, 1.5 mM + 0.5% canola oil + 0.125% Triton X-100, 24 hours; FIG. 2
Description: Three test samples were prepared using tomato seedlings. The descriptions of the treatments given to each test sample can be found in Table 3 below.
Liquid formulations were applied by spraying three squirts to the foliage with a spray bottle. Seedlings from each treatment were isolated in plastic boxes (i.e., as in Example 1, plants given the same treatment were isolated together). Polyphenol oxidase assays were carried out on the entire foliage of each plant 24 hours after application (Stout, M. J., Brovont, R. A., and Duffey, S. S., J. Chemical Ecology 24:6, pp. 946-963, the contents of which are incorporated by reference in their entirety).
The assay procedure was as follows. Tomato leaflets were weighed and ground in 1 ml of ice-cold extraction buffer (0.1M sodium phosphate buffer, pH 7, containing 3.5% polyvinylpolypyrolidine). Following grinding, 0.4 ml of 10% Triton® X-100 was added to the leaf homogenate, mixed and centrifuged for 15 minutes at 2000×g at 4-degrees. Fifteen microliters of the resulting supernatant was added to 1 ml of PPO Assay Buffer (2.92 mM caffeic acid in pH 7 sodium phosphate buffer) and the change in absorbance at A470 was recorded every minute for 10 minutes. Change in absorbance rate (OD A470/min/g protein) reflects the rate of formation of a compound produced by the activity of PPO. […]

trypsin inhibitor = assay: Activation of trypsin inhibitor in roses (Example 6); format: in vivo, white miniature roses (Parade Rose); conditions: 48 hours, FIG. 6; for proteinase (trypsin) inhibitor activity: 5.0 mM foliage spray plus root drench
Description: Potted plants of white miniature roses, marketed as Parade Rose® received one of three treatments. Roses were treated by (1) spraying the foliage of each plant to the point of drip to ensure maximum coverage; and (2) pouring 50 ml of the formulation into the soil within the root zone. There were three plants per treatment. 48 hours after treatment, all leaves from the entire plant were collected and pooled for analysis of trypsin inhibitor activity. Leaf extracts were prepared by adding 25 ml of 0.4 M sodium phosphate, pH 9, extraction buffer and 3 ml of 10% Triton® X-100 and grinding in a blender. The extract was filtered through four layers of cheesecloth. One milliliter of extract was spun at 2000×g for 15 minutes at 4-degrees and the resulting supernatant was frozen until the assay could be completed.
For the trypsin assay, rose extracts were thawed and replicates of 1, 2, and 3 μl for each extract were added to trypsin assay solution containing p-toluene-sulfonyl-L-arginine methyl ester (TAME) as the trypsin substrate. The level of trypsin activity was measured and reflects trypsin inhibition by trypsin inhibitor. Data is shown in FIG. 6, a graph of the results, and is presented as the mean and SEM of % remaining trypsin activity per gram fresh weight for 1, 2, and 3 μl. In FIG. 6, lower values represent greater trypsin inhibitor activity.

aphids = assay: Field study of aphid infestations in roses (Example 7); format: in vivo, aphids on 'Mr. Lincoln' roses; conditions: for concentration at which more efficacious against aphids: 1.5 mM vs 5 mM; for incidence of aphids on roses: foliar spray every 10-13 days, height of aphid pressure, FIGS. 7 and 8
Description: Potted roses of the cultivar ‘Mr. Lincoln’ were treated with 9 treatment samples (8 formulations and one untreated control). For each treatment sample, three plots having three plants each were treated, for a total of 9 plants per treatment. Roses were treated every 10-13 days by spraying the foliage of each plant to the point of drip to ensure maximum coverage. The plants were evaluated at approximately 10-day intervals for the number of aphids on each plant. Table 8 below includes the descriptions of the test formulations.
FIGS. 7 and 8 are two representations of the same data, taken at the height of aphid pressure. FIG. 7 is a histogram representing mean and SEM aphid counts on the roses with the various formulations. In FIG. 8, each data point represents the number of aphids on a single plant.

powdery mildew = assay: Treatment and control of powdery mildew in roses (Example 10); format: in vivo, powdery mildew on 'Mr. Lincoln' roses; conditions: beyond disease levels measured prior to first treatment
Description: Outdoor potted roses of the cultivar ‘Mr. Lincoln’ were treated with 9 treatment samples (8 formulations and one untreated control). For each treatment sample, three plots having three plants each were treated for a total of 9 plants per treatment. Roses were treated every 2 weeks by spraying the foliage of each plant to the point of drip to ensure maximum coverage. Plants were initially evaluated for powdery mildew incidence and severity prior to the first treatment of the trial. […] Subsequent evaluations followed every 10 days for 2 months. Evaluations consisted of evaluating 60 individual leaves per plot (20 leaves were collected from 3 rose plants per plot) for disease incidence and severity. Disease incidence was determined by counting the number of leaves infected. Disease severity was determined as the percentage of leaf surface infected with the disease. Analysis of Variance was calculated for both severity and incidence. Table 11 below describes the mean number of leaves found to be infected with powdery mildew for each treatment group on respective evaluation days. […] FIG. 15 is a graph illustrating the percentage of leaves infected in each treatment group. In FIG. 15, the individual bars within each treatment represent successive evaluations on days 1, 11, 21, 31, 41, 52, and 62.

[1] = system: cell suspension cultures of E. californica; conditions: cited from earlier work
Polyphenol Oxidase = assay: Activation of polyphenol oxidase in field-grown roses (Example 4); format: in vivo, 'Julia Child' roses; conditions: FIG. 5; for PPO activity: 5 mM + 0.5% canola oil + 0.125% Triton X-100, 44 hours, caffeic acid substrate
Description: Field grown 1-year old ‘Julia Child’ roses were treated with foliar sprays of two different formulations. Roses were treated by spraying the foliage of each plant to the point of drip to ensure maximum coverage. There were three plants per treatment. 44 hours after application, 3 young leaves from each plant (each leaf from a different stem and all leaves at the same stage of development) were collected and pooled for analysis of PPO activity as in Example 2 above, except that 0.5 ml of ice cold extraction buffer were used, followed by addition of 160 μl 10% Triton® X-100. 50 μl of the supernatant was added to 1 ml of PPO assay buffer. The formulations are set forth in Table 5 below, and the data is shown FIG. 5, a graph of PPO activity for the two formulations and an untreated control. Data are reported as mean and SEM for each treatment.

gene expression = conditions: tobacco plants; cited from earlier work
[2] = system: proteinase inhibitor I and II; assay: Proteinase inhibitor I and II induction in tomato seedlings, radial immunodiffusion assay, 24 h (Example 1); format: in vivo; conditions: 1.5 mM in water, FIG. 1
Description: Seven test samples or groups were prepared using two week old tomato seedlings. The descriptions of the treatments given to each test sample can be found in Table 2 below. Liquid formulations were applied by spraying three squirts to the foliage with a spray bottle. Eight plants per treatment (four pots per treatment, each pot containing two seedlings) were sprayed with each test formulation. Plants from each treatment were isolated in enclosed Plexiglas boxes and placed overnight in a light- and temperature-controlled growth chamber (i.e., plants given the same treatment were isolated together in a single Plexiglas box; plants given different treatments were in different boxes). Twenty-four hours after treatment, each plant was assayed for proteinase inhibitor I and II production by a radial immunodiffusion assay using anti-inhibitor antibodies (Ryan, C. A., Analytical Biochemistry 19 (1967), pp. 424-440, the contents of which are incorporated by reference in their entirety). [table] The results for each of the test samples are shown in FIG. 1, a graph in which proteinase inhibitor levels (PI-I and PI-II) are reported in micrograms of proteinase inhibitor per milliliter of leaf extract for each test sample. The two plants per pot were pooled to give one data point per pot (i.e., four data points total were collected per treatment).

damping off disease = assay: Observational decrease in disease in tomato seedlings (Example 8); format: in vivo; conditions: 1.5 mM MDHJ, 0.5% canola oil, 0.125% Triton X-100 foliar spray; 17th day after treatment
Description: FIG. 9 is a photograph of an untreated tomato seedling, illustrating the damping off disease on the leaves;
One group of tomato seedlings was treated with a formulation comprising 1.5 mM MDHJ, 0.5% canola oil, and 0.125% Triton® X-100 by spraying the foliage until the point of dripping. Another group of tomato seedlings was left untreated. Plants from each group were isolated in respective Plexiglas boxes. Photographs of the plants were taken on the 17th day after treatment. One plant in each treatment group had died.

Structure (SMILES)	activation of PPO (Polyphenol Oxidase (PPO))	proteinase (trypsin) inhibitor activity (trypsin inhibitor)	enhancement of proteinase inhibitor activity compared with MJ (trypsin inhibitor; 5.0 mM)	concentration at which more efficacious against aphids (aphids)	incidence of aphids on roses (aphids)	progression of powdery mildew incidence (powdery mildew)	concentration inducing benzo[c]phenanthridine alkaloid synthesis [1] [µM]	concentration relative to MJ required for the same effect [1]	PPO activity (Polyphenol Oxidase)	elicitation of plant defenses (PPO) compared with MJ (Polyphenol Oxidase; field-grown roses, 5 mM, 44 hours)	bioactivity relative to MJ (gene expression)	proteinase inhibitor level compared with wounding response [2]	signs of disease in seedlings (damping off disease)
CCCCCC1C(=O)CCC1CC(=O)OC (stereo not shown) [MDHJ, methyl dihydrojasmonate]	activate PPO	enhanced proteinase inhibitor activity	to a greater degree than MJ	more efficacious at the lower concentration of 1.5 mM	reduced aphid counts	similarly effective in slowing the progression of powdery mildew incidence	10	five times the concentration of MJ required to produce the same effect	increased PPO activity	equal to or better than the levels seen after MJ application	only a small fraction of the bioactivity of MJ	much greater level than the plant's natural response to wounding	did not show signs of disease
CC/C=C\CC1C(=O)CCC1CC(=O)OC (stereo not shown) [MJ, methyl jasmonate, reference compound]		enhanced proteinase inhibitor activity		more efficacious at the higher concentration of 5 mM	reduced aphid counts	similarly effective in slowing the progression of powdery mildew incidence			increased PPO activity			much greater level than the plant's natural response to wounding	
